# Patent US7951385B2, “Probiotic strain and antimicrobial peptide derived therefrom” (Cipla Medpro Research and Development (Pty) Ltd., priority 2006, dated 2011)
# Assays:
# [1] = system: Pseudomonas sp. isolated from infected middle-ear fluid; experiment: Activity on paper disks and comparison with antibiotics (inhibition zones); type: cell-based
# Procedure: Activity was tested against a Pseudomonas sp. isolated from infected middle-ear fluid.
# pathogens tested = experiment: Adhesion of peptide ST4SA to pathogens (summary); type: binding; details: conclusion for the pathogens tested (Table 7)
# Text: Binding of peptide ST4SA to target cells is important to ensure penetration of the peptide. The ability of peptide ST4SA to adhere to pathogens was studied and the results were expressed as a percentage binding to the pathogens (Table 7). […] Adhesion of peptide ST4SA to the target cell leads to penetration and disruption of the cell membrane (FIG. 14).
# [2] = system: Middle ear isolates (unknown); experiment: Extracellular DNA after treatment of pathogens with peptide ST4SA; type: cell-based
# Text: (§1) Further evidence of cell membrane damage and leakage of cellular constituents was obtained by testing for extracellular DNA and extracellular β-galactosidase activity.
# Enterococcus spp. HKLHS [3] = experiment: as above; type: cell-based; details: Control organism Enterococcus spp. HKLHS
# Text: as §1
# Pseudomonas auringinosa = experiment: as above; type: cell-based; details: Pseudomonas auringinosa E
# Text: as §1
# Streptococcus pyogenes [4] = experiment: as above; type: cell-based; details: Streptococcus pyogenes 20
# Text: as §1
# Staphylococcus aureus [5] = experiment: as above; type: cell-based; details: Staphylococcus aureus 36
# Text: as §1
# Klebsiella pneumoniae [6] = experiment: as above; type: cell-based; details: Klebsiella pneumoniae 30
# Text: as §1
# Streptococcus pneumoniae [7] = experiment: as above; type: cell-based
# Text: as §1
# [8] = system: Lactobacillus sakei DSM 20017; experiment: Blocking of the Lipid II target site with vancomycin; type: cell-based; details: L. sakei DSM 20017, FIG. 26
# Text: To test this hypothesis, the Lipid II target site of Lactobacillus sakei DSM 20017 (sensitive to peptide ST 4SA) was blocked with vancomycin (see schematic presentation, FIG. 26). Vancomycin adheres to the amino acid side chain of the Lipid II molecule, which would, theoretically, prevent peptide ST4SA from binding to the same site (that is if Lipid II acts as receptor). […] The fact that peptide ST4SA binds to more than one anchoring site on the sensitive cell may explain why it has such a broad spectrum of antimicrobial activity (inhibitory to Gram-positive and Gram-negative bacteria).
# [9] = system: Middle ear isolates (unknown); experiment: β-galactosidase leakage after treatment of pathogens with peptide ST4SA; type: cell-based
# Text: as §1
# Enterococcus spp. HKLHS [10] = experiment: as above; type: cell-based; details: Control organism Enterococcus spp. HKLHS
# Text: as §1
# Streptococcus pyogenes [11] = experiment: as above; type: cell-based; details: Streptococcus pyogenes 20
# Text: as §1
# Staphylococcus aureus [12] = experiment: as above; type: cell-based; details: Staphylococcus aureus 36
# Text: as §1
# Klebsiella pneumoniae [13] = experiment: as above; type: cell-based; details: Klebsiella pneumoniae 30
# Text: as §1
# Streptococcus pneumoniae [14] = experiment: as above; type: cell-based
# Text: as §1
# Lactobacillus casei LHS = experiment: Effect of enzymes, temperature, pH and detergents on antimicrobial activity of peptide ST4SA; type: physicochemical; set-up: key: − = no activity; + = activity zones of at least 5 mm in diameter
# Procedure: Antimicrobial activity was expressed as arbitrary units (AU) per ml cell-free supernatant. One AU is defined as the reciprocal of the highest dilution showing a clear zone of growth inhibition and is calculated as follows:
# a^b×100, where “a” represents the dilution factor and “b” the last dilution that produces an inhibition zone of at least 2 mm in diameter. Activity is expressed per ml by multiplication with 100. Lactobacillus casei LHS was used as indicator strain.
# The cells were harvested (8 000×g, 4° C., 15 min) and the cell-free supernatants adjusted to pH 6.0 with 6M NaOH. One ml of each supernatant was treated with catalase (Boehringer Mannheim) at 0.1 mg/ml (final concentration), Proteinase K (Roche, Indianapolis, Ind., USA), pronase, papain, pepsin and trypsin (Boehringer Mannheim GmbH, Germany), at 1 mg/ml and 0.1 mg/ml (final concentration), respectively. After incubation the enzymes were heat-inactivated (3 min at 100° C.) and tested for antimicrobial activity, as described before.
# Aliquots of peptide ST4SA were exposed to heat treatments of 30° C., 60° C. and 100° C. for 10, 30 and 90 min, respectively, and 121° C. for 20 min (Table 3). The samples were then tested for antimicrobial activity, as described before.
# In a separate experiment, samples of peptide ST4SA were adjusted to pH values ranging from 2-12, incubated at 37° C. for 30 min, neutralised to pH 7, and then tested for antimicrobial activity (Table 3).
# L. monocytogenes = L. monocytogenes challenged with ST4SA in in vitro gastro-intestinal (GIT) model; type: cell-based, Listeria monocytogenes
# Procedure: The antimicrobial activity of ST4SA against L. monocytogenes in an in vitro gastro-intestinal model was determined. ST4SA was inoculated in the stomach vessel as described hereinbefore. L. monocytogenes (1×10^4) was inoculated in the duodenum vessel of the GIT. Samples were taken from each vessel and plated out on Enterococcus and Listeria specific medium, respectively. As control, only L. monocytogenes was inoculated in the GIT model.
substance,measurement,setting,value
"Peptide ST4SA: broad-spectrum antibacterial peptide (bacteriocin) produced by Enterococcus mundtii strain ST4SA, SEQ. ID. NO. 12 (MSQVVGGKYYGNGVSCNKKGCSVDWGKAIGIIGNNSAANLATGGAAGWKS; ENTEROCOCCUS MUNDTII ST4SA)",Diameter of inhibition zones,"[1]; Ampicillin 10 μg, Bacitracin 10 units, Chloramphenicol 30 μg, Erythromycin 15 μg, Tetracycline 30 μg, peptide on paper disk",25 mm
same,Activity of peptide ST4SA on paper disks,[1]; Freeze dried,409600 AU/ml
same,Activity of peptide ST4SA on paper disks,[1]; Paper disk (0.6 cm diameter),20263 AU/ml
same,Activity of peptide ST4SA on paper disks,[1]; Paper disk (2 cm × 2 cm; 700 μl),286720 AU/ml
same,percentage binding to the pathogens,pathogens tested,at least 75%
same,DNA-leakage (O.D. readings at 260 nm),[2]; Middle ear isolate 40,0.801
same,DNA-leakage (O.D. readings at 260 nm),[2]; Middle ear isolate BW,1.186
same,DNA-leakage (O.D. readings at 260 nm),[2]; Middle ear isolate DW,1.153
same,DNA-leakage (O.D. readings at 260 nm),[2]; Middle ear isolate F,1.428
same,DNA-leakage (O.D. readings at 260 nm),[2]; Middle ear isolate GW,0.751
same,DNA-leakage (O.D. readings at 260 nm),[2]; Middle ear isolate HW,1.559
same,DNA-leakage (O.D. readings at 260 nm),[2]; Middle ear isolate K,0.455
same,DNA-leakage (O.D. readings at 260 nm),[2]; Middle ear isolate L,0.592
same,DNA-leakage (O.D. readings at 260 nm),[2]; Middle ear isolate M,0.326
same,DNA-leakage (O.D. readings at 260 nm),Enterococcus spp. HKLHS [3],1.395
same,DNA-leakage (O.D. readings at 260 nm),Pseudomonas auringinosa,0.187
same,DNA-leakage (O.D. readings at 260 nm),Streptococcus pyogenes [4],0.930
same,DNA-leakage (O.D. readings at 260 nm),Staphylococcus aureus [5],0.892
same,DNA-leakage (O.D. readings at 260 nm),Klebsiella pneumoniae [6],1.01
same,DNA-leakage (O.D. readings at 260 nm),Streptococcus pneumoniae [7]; Streptococcus pneumoniae 27,1.670
same,DNA-leakage (O.D. readings at 260 nm),Streptococcus pneumoniae [7]; Streptococcus pneumoniae 29,1.182
same,DNA-leakage (O.D. readings at 260 nm),Streptococcus pneumoniae [7]; Streptococcus pneumoniae D,1.160
same,Effect on target cells after blocking Lipid II with vancomycin,[8],resulted in growth inhibition
same,β-galactosidase recorded at OD420,[9]; Middle ear isolate BW,0.370
same,β-galactosidase recorded at OD420,[9]; Middle ear isolate DW,0.293
same,β-galactosidase recorded at OD420,[9]; Middle ear isolate F,0.318
same,β-galactosidase recorded at OD420,[9]; Middle ear isolate GW,0.373
same,β-galactosidase recorded at OD420,[9]; Middle ear isolate HW,0.235
same,β-galactosidase recorded at OD420,[9]; Middle ear isolate K,No leakage
same,β-galactosidase recorded at OD420,[9]; Middle ear isolate L,No leakage
same,β-galactosidase recorded at OD420,[9]; Middle ear isolate M,No leakage
same,β-galactosidase recorded at OD420,Enterococcus spp. HKLHS [10],No leakage
same,β-galactosidase recorded at OD420,Streptococcus pyogenes [11],No leakage
same,β-galactosidase recorded at OD420,Staphylococcus aureus [12],No leakage
same,β-galactosidase recorded at OD420,Klebsiella pneumoniae [13],No leakage
same,β-galactosidase recorded at OD420,Streptococcus pneumoniae [14]; Streptococcus pneumoniae 27,No leakage
same,β-galactosidase recorded at OD420,Streptococcus pneumoniae [14]; Streptococcus pneumoniae 29,No leakage
same,β-galactosidase recorded at OD420,Streptococcus pneumoniae [14]; Streptococcus pneumoniae D,No leakage
same,Antimicrobial activity after treatment,Lactobacillus casei LHS; Detergents (1%): SDS,+ (+ = activity zones of at least 5 mm in diameter)
same,Antimicrobial activity after treatment,Lactobacillus casei LHS; Detergents (1%): Triton X-100,+ (+ = activity zones of at least 5 mm in diameter)
same,Antimicrobial activity after treatment,Lactobacillus casei LHS; Detergents (1%): Triton X-114,−
same,Antimicrobial activity after treatment,"Lactobacillus casei LHS; Detergents (1%): Tween 20, Tween 80",+ (+ = activity zones of at least 5 mm in diameter)
same,Antimicrobial activity after treatment,Lactobacillus casei LHS; Detergents (1%): urea,+ (+ = activity zones of at least 5 mm in diameter)
same,Antimicrobial activity after treatment,"Lactobacillus casei LHS; EDTA: 0.1 mM, 1.0 mM, 2.0 mM",+ (+ = activity zones of at least 5 mm in diameter)
same,Antimicrobial activity after treatment,Lactobacillus casei LHS; Enzymes: Proteinase K,−
same,Antimicrobial activity after treatment,Lactobacillus casei LHS; Enzymes: pepsin,−
same,Antimicrobial activity after treatment,Lactobacillus casei LHS; Enzymes: pronase,−
same,Antimicrobial activity after treatment,Lactobacillus casei LHS; Enzymes: α-amylase,+ (+ = activity zones of at least 5 mm in diameter)
same,Antimicrobial activity after treatment,"Lactobacillus casei LHS; Heat: 30, 60, 100° C. for 10 min",+ (+ = activity zones of at least 5 mm in diameter)
same,Antimicrobial activity after treatment,"Lactobacillus casei LHS; Heat: 30, 60, 100° C. for 30 min",+ (+ = activity zones of at least 5 mm in diameter)
same,Antimicrobial activity after treatment,"Lactobacillus casei LHS; Heat: 30, 60, 100° C. for 90 min",+ (+ = activity zones of at least 5 mm in diameter)
same,Antimicrobial activity after treatment,Lactobacillus casei LHS; Heat: 121° C. for 20 min,−
same,Antimicrobial activity after treatment,"Lactobacillus casei LHS; pH 2.0-12.0, 37° C. for 30 min, neutralised to pH 7",+ (+ = activity zones of at least 5 mm in diameter)
same,Antimicrobial activity after treatment,Lactobacillus casei LHS; proteolytic enzyme papain,inactivated
same,Antimicrobial activity after treatment,Lactobacillus casei LHS; proteolytic enzyme trypsin,inactivated
same,L. monocytogenes lower than control,"L. monocytogenes; ileum vessel, compared with the control",1×10^1 cfu/ml
same,Growth of L. monocytogenes,"L. monocytogenes; jejunum vessel, reduced from 8×10^4 (control)",2×10^4
